Measurements published in ChEMBL document CHEMBL5223175, “Discovery of novel 2-oximino-2-indolylacetamide derivatives as potent anticancer agents capable of inducing cell autophagy and ferroptosis” (Bioorg Med Chem, 2023).

Tests used:
[1] = tested on: 5-8F; assay: Antiproliferative activity against human 5-8F cells assessed as cell viability at 80 uM incubated for 72 hrs by CCK-8 assay; assay type: functional; details: read-out: Activity
[2] = tested on: HeLa; assay: Antiproliferative activity against human HeLa cells assessed as cell viability at 80 uM incubated for 72 hrs by CCK-8 assay; assay type: functional; details: read-out: Activity
[3] = tested on: SK-HEP1; assay: Antiproliferative activity against human SK-HEP1 cells assessed as cell viability at 80 uM incubated for 72 hrs by CCK-8 assay; assay type: functional; details: read-out: Activity
[4] = tested on: FaDu; assay: Antiproliferative activity against human FaDu cells assessed as reduction in cell viability incubated for 72 hrs by CCK-8 assay; assay type: functional, cell-based
[5] = tested on: CAL-27; assay: Antiproliferative activity against human CAL-27 cells assessed as reduction in cell viability incubated for 72 hrs by CCK-8 assay; assay type: functional, cell-based; details: CAL-27, 72 h
[6] = Antiproliferative activity against human NP69SV40T cells assessed as reduction in cell viability incubated for 72 hrs by CCK-8 assay; assay type: toxicity, cell-based
[7] = Toxicity in BALB/c mouse xenografted with human 5-8F cells assessed as decrease in body weight at 2 mg/kg, ip administered every 2 days; assay type: organism-based; details: in vivo, 48 h, time 2 day
[8] = tested on: 5-8F; assay: Antiproliferative activity against human 5-8F cells assessed as reduction in cell viability incubated for 72 hrs by CCK-8 assay; assay type: functional, cell-based

Row | SMILES | viability at 80 µM [1] | viability at 80 µM [2] | viability at 80 µM [3] | IC50 [4] | IC50 [5] | IC50 at 72 h [6] | Activity [7] | IC50 [8]
1 | Cn1cc(/C(=N/O)C(=O)Nc2ccc(C(F)(F)F)cc2)c2ccccc21 | 45% | 25.7% | 51.5% | – | – | – | – | –
2 | Cn1cc(/C(=N\O)C(=O)Nc2ccc(Br)c(F)c2)c2ccccc21 | 86.8% | 56.7% | 75.6% | – | – | – | – | –
3 | Cn1cc(/C(=N/O)C(=O)Nc2ccc(Br)cc2)c2ccccc21 | 31.5% | 18.4% | 29.1% | – | – | – | – | –
4 | Cn1cc(/C(=N\O)C(=O)Nc2ccc(C(F)(F)F)cc2)c2ccccc21 | 10.2% | 15.8% | 15% | – | – | – | – | –
5 | Cn1cc(/C(=N/O)C(=O)Nc2ccc(Cl)cc2)c2ccccc21 | 47.2% | 57.2% | 71.6% | – | – | – | – | –
6 | Cn1cc(/C(=N\O)C(=O)Nc2cccc(Cl)c2)c2ccccc21 | 12.7% | 14% | 31.4% | – | – | – | – | –
7 | Cc1ccccc1NC(=O)/C(=N\O)c1cn(C)c2ccccc12 | 92.8% | 86.3% | 77.6% | – | – | – | – | –
8 | Cn1cc(/C(=N/O)C(=O)Nc2cccc(F)c2)c2ccccc21 | 73.1% | 61.2% | 68% | – | – | – | – | –
9 | Cn1cc(/C(=N\O)C(=O)Nc2cccc(F)c2)c2ccccc21 | 59.3% | 53.2% | 40% | – | – | – | – | –
10 | COc1cccc2c1C(=O)c1c(O)c3c(c(O)c1C2=O)C[C@@](O)(C(=O)CO)C[C@@H]3O[C@H]1C[C@H](N)[C@H](O)[C@H](C)O1 [DOXORUBICIN] | – | – | – | 160 nM | 180 nM | 110 nM | Toxic | 340 nM
11 | Cn1cc(/C(=N/O)C(=O)Nc2ccc(Br)c(F)c2)c2ccccc21 | 75% | 71.2% | 60.6% | – | – | – | – | –
12 | Cc1ccccc1NC(=O)/C(=N/O)c1cn(C)c2ccccc12 | 95.3% | 77.1% | 76.8% | – | – | – | – | –
13 | Cn1cc(/C(=N/O)C(=O)Nc2cccc(Cl)c2)c2ccccc21 | 78% | 64.6% | 64.6% | – | – | – | – | –
14 | Cn1cc(/C(=N\O)C(=O)Nc2ccc(Br)cc2)c2ccccc21 | 22.1% | 14.8% | 28.9% | – | – | – | – | –
